# Data as given in US20110053945A1, “SALTS OF 6-(5-CHLORO-2-PYRIDYL)-5-[(4-METHYL-1-PIPERAZINYL)CARBONYLOXY]-7-OXO-6,7-DIHY-DRO-5H-PYRROLO[3,4-B]PYRAZINE” (SEPRACOR INC., priority 2007, published 2011).
# Counter-ions that a name gives are not always drawn.
# Tests used:
# [1] = Intrinsic dissolution, USP 28 method <1087>; format: physicochemical; settings: isotonic 50 mM acetate buffer pH 4.5, 37° C., 50 rpm; for Intrinsic dissolution Average: average of two runs
# Experimental: Intrinsic dissolution was determined using USP 28 method <1087> (United States Pharmacopeia, The National Formulary, USP 28, 28th edition, Rockville, […]., 2005). Preparation of each test sample was performed as per USP 28 method <1087> by weighing and transferring the material to the die cavity and compressing for 1 minute at the minimum compression pressure necessary to form a nondisintegrating compacted pellet. The dissolution media used was isotonic 50 mM acetate buffer (pH 4.5) at 37° C. and speed was set at 50 rpm. Each run was halted at 5 min, irrespective of the percent dissolved. Each salt was run in duplicate.
# [2] = Aqueous solubility, equilibrated 24 hour suspension of the salt in water, HPLC; format: physicochemical; settings: for pH: pH measured at saturation in water; for Solubility: water, 24 hour at ambient
# Experimental: The aliquot was diluted and analyzed by HPLC. The data was compared to a standard curve generated from a set of solutions of known concentrations. The standard curve and the samples were analyzed using a HPLC using the following conditions: • Column: Symmetry C-18, 5 um, 15 cm×3.9 mm (Waters) • Mobile Phase: 0.05 M KH2PO4-0.01 M Hexanesulfonic Acid/THF (1000:125) (Apparent pH 5.0) • Column Temp: 20-30° C. • Flow Rate: 1.0 mL/min • Wavelength: 305 nm • Run Time: 15 min (zopiclone retention time is 9.5-10 min)
Compound,Intrinsic dissolution Run 1 [1],Intrinsic dissolution Run 2 [1],Intrinsic dissolution Average [1],pH [2],Solubility [2]
"CN1CCN(C(=O)OC2c3nccnc3C(=O)N2c2ccc(Cl)cn2)CC1 (stereo in doubt) [(R)-Mandelate, (S)-Zopiclone (R)-Mandelate]",8.2 mgA/cm^2/min,8.9 mgA/cm^2/min,8.5 mgA/cm^2/min,5.1,25 mgA/mL
"CN1CCN(C(=O)O[C@H]2c3nccnc3C(=O)N2c2ccc(Cl)cn2)CC1 [D-Malate, (S)-Zopiclone D-Malate]",20.0 mgA/cm^2/min,19.8 mgA/cm^2/min,19.9 mgA/cm^2/min,4.0,36 mgA/mL
"CN1CCN(C(=O)O[C@H]2c3nccnc3C(=O)N2c2ccc(Cl)cn2)CC1 [Free base, (S)-(6-(5-chloro-2-pyridyl)-5-[(4-methyl-1-piperazinyl)carbonyloxy]-7-oxo-6,7-dihydro-5H-pyrrolo[3,4-b]pyrazine), reference compound]",0.6 mgA/cm^2/min,0.5 mgA/cm^2/min,0.5 mgA/cm^2/min,7.6,0.2^1 mgA/mL
"CN1CCN(C(=O)O[C@H]2c3nccnc3C(=O)N2c2ccc(Cl)cn2)CC1 [Mesylate, (S)-Zopiclone Mesylate]",,,,4.9,>86 mgA/mL
"CN1CCN(C(=O)O[C@H]2c3nccnc3C(=O)N2c2ccc(Cl)cn2)CC1 [Succinate, (S)-Zopiclone Succinate]",,,,,100 mgA/mL
